From US20260285853A1, “COMPOUNDS AND METHODS FOR MODULATING SPLICING” (REMIX THERAPEUTICS INC., priority 2023, published 2026)
Structures can show the parent of a compound that is named as a salt.

Key:
Assay in all cases: Gene panel canonical junction qPCR assay, decrease in CJ mRNA, Table 3
Type in all cases: cell-based
[1] = tested on: HTT mRNA
How it was run: (§1)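 Eleven-point dose responses from 10 uM final, 24 h, DMSO ≤0.25%, in A673 or K562 cells. Relative quantification by 2^(−ΔΔCt) against housekeeper and vehicle was converted to percent response over fixed ΔCt windows and fitted to yield IC50.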

[2] = tested on: MYB mRNA
How it was run: as §1

[3] = tested on: SMN2 mRNA
How it was run: as §1

[4] = decrease in canonical junction (CJ) mRNA, gene panel qPCR, Table 3
[5] = decrease in CJ mRNA levels, canonical junction qPCR, gene panel

| SMILES | IC50 [1, 4] [µM] | IC50 [2, 4] [µM] | IC50 [3, 4] [µM] | IC50 [1, 5] [µM] | IC50 [2, 5] [µM] | IC50 [3, 5] [µM] |
| --- | --- | --- | --- | --- | --- | --- |
| Cc1cn2cc(NC(=O)c3ccc(N4C[C@@H](C)N[C@@H](C)C4)c4[nH]nnc34)cc(F)c2n1 [Compound 243, 7-((3S,5R)-3,5-dimethylpiperazin-1-yl)-N-(8-fluoro-2-methylimidazo[1,2-a]pyridin-6-yl)-1H-benzo[d][1,2,3]-triazole-4-carboxamide hydrochloride] | > 10 | > 10 | 1 to 10 | – | – | – |
| CCN[C@@H]1CCN(c2cc(O)c(C(=O)Nc3cc(F)c4nn(C)cc4c3)c3nn(C)cc23)C1 [Compound 294, 4-[(3R)-3-(ethylamino)-pyrrolidin-1-yl]-N-(7-fluoro-2-methyl-indazol-5-yl)-6-hydroxy-2-methyl-indazole-7-carboxamide] | 0.1 to 1 | < 0.1 | < 0.1 | – | – | – |
| CCNC1CCN(c2ccc(C(=O)Nc3cc(F)c4nc(C)cn4c3)c3c2nnn3C)CC1 [Compound 198, 4-(4-(ethylamino)piperidin-1-yl)-N-(8-fluoro-2-methylimidazo[1,2-a]pyridin-6-yl)-1-methyl-1H-benzo[d][1,2,3]triazole-7-carboxamide 2,2,2-trifluoroacetate] | > 10 | > 10 | > 10 | – | – | – |
| COc1c(NC(=O)c2ncc(N3CCNCC3)c3cn[nH]c23)cn2cc(C)nc2c1F [Compound 606, N-(8-fluoro-7-methoxy-2-methyl-imidazo[1,2-a]pyridin-6-yl)-4-piperazin-1-yl-1H-pyrazolo[3,4-c]pyridine-7-carboxamide] | – | – | – | > 10 | > 10 | 0.1 to 1 |
| Cc1cn2cc(NC(=O)c3ccc(N4CCC(NC5CC56CC6)CC4)c4cn(C)nc34)cc(F)c2n1 (stereo not drawn) [Compound 203, N-(8-fluoro-2-methyl-imidazo[1,2-a]-pyridin-6-yl)-2-methyl-4-[4-(spiro[2.2]pentan-2-ylamino)-1-piperidyl] indazole-7-carboxamide] | 0.1 to 1 | < 0.1 | < 0.1 | – | – | – |
| Cc1cn2nc(C(=O)Nc3ccc(N4C[C@@H](C)N[C@@H](C)C4)c4cc[nH]c34)cc(C)c2n1 [Compound 237, N-(4-[(3R,5S)-3,5-dimethylpiperazin-1-yl]-1H-indol-7-yl)-2,8-dimethylimidazo[1,2-b]pyridazine-6-carboxamide] | 1 to 10 | 1 to 10 | 1 to 10 | – | – | – |
| CN[C@H]1CCN(c2ccc(C(=O)Nc3cc(F)c4nc(C)cn4c3)c3nn(C)cc23)[C@@H]1C (single isomer, unassigned) [Compound 154] | > 10 | 0.1 to 1 | < 0.1 | – | – | – |
| CCNC1CCN(c2ccc(C(=O)Nc3cc(F)c4nc(COC)cn4c3)c3nn(C)cc23)CC1 [Compound 284, 4-[4-(ethylamino)-1-piperidyl]-N-[8-fluoro-2-(methoxymethyl)imidazo[1,2-a]pyridin-6-yl]-2-methyl-indazole-7-carboxamide] | 1 to 10 | 1 to 10 | 0.1 to 1 | – | – | – |
| CCNC1CCN(c2ccc(C(=O)Nc3cc(F)c4nc(C)cn4c3)c3nn(C)nc23)CC1 [Compound 196, 7-[4-(ethylamino)piperidin-1-yl]-N-(8-fluoro-2-methyl-imidazo[1,2-a]pyridin-6-yl)-2-methyl-1,2,3-benzotriazole-4-carboxamide] | 0.1 to 1 | 0.1 to 1 | < 0.1 | – | – | – |
| Cc1cn2nc(NC(=O)c3ccc(N4CCC(NC5CC5)CC4)c4cn(C)nc34)cc(C)c2n1 [Compound 187, 4-[4-(cyclopropylamino)-1-piperidyl]-N-(2,8-dimethylimidazo-[1,2-b]pyridazin-6-yl)-2-methyl-indazole-7-carboxamide] | 0.1 to 1 | 0.1 to 1 | 0.1 to 1 | – | – | – |
| COCCN[C@@H]1CCN(c2ccc(C(=O)Nc3cc(F)c4nc(C)cn4c3)c3nn(C)cc23)C1 [Compound 113, N-(8-fluoro-2-methyl-imidazo[1,2-a]pyridin-6-yl)-4-[(3R)-3-(2-methoxyethylamino)pyrrolidin-1-yl]-2-methyl-indazole-7-carboxamide] | > 10 | 0.1 to 1 | < 0.1 | – | – | – |
| Cc1cn2cc(NC(=O)c3ccc(N4CCC(NC5CC5)CC4)c4ccoc34)cc(F)c2n1 [Compound 191, 4-[4-(cyclopropylamino)-1-piperidyl]-N-(8-fluoro-2-methyl-imidazo[1,2-a]pyridin-6-yl) benzofuran-7-carboxamide] | 1 to 10 | 0.1 to 1 | < 0.1 | – | – | – |
| CCNC1CCN(c2cc(F)c(C(=O)Nc3cc(F)c4nc(C)cn4c3)c3ccoc23)CC1 [Compound 195, 7-[4-(ethylamino)-1-piperidyl]-5-fluoro-N-(8-fluoro-2-methylimidazo[1,2-a]pyridin-6-yl)-benzofuran-4-carboxamide] | > 10 | > 10 | 1 to 10 | – | – | – |
| CCNC1CCN(c2ccc(C(=O)Nc3cc(C)c4nc(C)cn4n3)c3nn(C)cc23)CC1 [Compound 186, N-(2,8-dimethylimidazo [1,2-b]pyridazin-6-yl)-4-[4-(ethylamino)-1-piperidyl]-2-methyl-indazole-7-carboxamide] | 0.1 to 1 | 0.1 to 1 | 0.1 to 1 | – | – | – |
| Cc1cn2cc(NC(=O)c3ccc(N4C[C@@H](C)N[C@@H](C)C4)c4c3nnn4C)cc(F)c2n1 [Compound 635] | – | – | – | 1 to 10 | 0.1 to 1 | < 0.1 |
| CCNC1CCN(c2ccc(C(=O)Nc3cc(OC)c4nc(C)cn4c3)c3nn(C)cc23)CC1 [Compound 175, 4-(4-(ethylamino)piperidin-1-yl)-N-(8-methoxy-2-methyl-imidazo-[1,2-a]pyridin-6-yl)-2-methyl-2H-indazole-7-carboxamide] | 0.1 to 1 | 0.1 to 1 | < 0.1 | – | – | – |
| CCNC1CCN(c2ccc(C(=O)Nc3cc(F)c4nc(C)cn4c3)c3nnn(C)c23)CC1 [Compound 199, 7-[4-(ethylamino)-1-piperidyl]-N-(8-fluoro-2-methylimidazo[1,2-a]-pyridin-6-yl)-1-methylbenzotriazole-4-carboxamide] | > 10 | 0.1 to 1 | < 0.1 | – | – | – |

The next lines start with the values.

| IC50 [1, 4] [µM] | IC50 [2, 4] [µM] | IC50 [3, 4] [µM] | IC50 [1, 5] [µM] | IC50 [2, 5] [µM] | IC50 [3, 5] [µM] | SMILES |
| --- | --- | --- | --- | --- | --- | --- |
| 1 to 10 | < 0.1 | < 0.1 | – | – | – | CCNC1CCN(c2ccc(C(=O)Nc3cc(F)c4nc(CF)cn4c3)c3nn(C)cc23)CC1 [Compound 202, 4-[4-(ethylamino)-1-piperidyl]-N-[8-fluoro-2-(fluoromethyl)imidazo[1,2-a]pyridin-6-yl]-2-methyl-indazole-7-carboxamide] |
| 1 to 10 | 0.1 to 1 | < 0.1 | – | – | – | Cc1cn2cc(NC(=O)c3ccc(C4CNCCO4)c4[nH]cnc34)cc(F)c2n1 (stereo not drawn) [Compound 194, N-(8-fluoro-2-methyl-imidazo[1,2-a]pyridin-6-yl)-7-morpholin-2-yl-1H-benzimidazole-4-carboxamide] |
| > 10 | > 10 | > 10 | – | – | – | CN[C@H]1CCN(c2ccc(C(=O)Nc3cc(F)c4nc(C)cn4c3)c3c2nnn3C)C1 [Compound 160, N-(8-fluoro-2-methyl-imidazo[1,2-a]pyridin-6-yl)-3-methyl-7-[(3S)-3-(methylamino)-pyrrolidin-1-yl]benzotriazole-4-carboxamide] |
| 1 to 10 | 0.1 to 1 | < 0.1 | – | – | – | CN[C@@H]1C[C@@H](C)N(c2ccc(C(=O)Nc3cc(F)c4nc(C)cn4c3)c3nn(C)cc23)C1 [Compound 129, N-(8-fluoro-2-methyl-imidazo[1,2-a]pyridin-6-yl)-2-methyl-4-[(2R,4R)-2-methyl-4-(methylamino)pyrrol-idin-1-yl]indazole-7-carboxamide] |
| < 0.1 | < 0.1 | < 0.1 | – | – | – | COc1c(NC(=O)c2c(F)cc(N3CCC(NC4CC4)CC3)c3cn(C)nc23)cn2cc(C)nc2c1F [Compound 207, 4-[4-(cyclopropylamino)-1-piperidyl]-6-fluoro-N-(8-fluoro-7-methoxy-2-methyl-imidazo[1,2-a]pyridin-6-yl)-2-methyl-indazole-7-carboxamide] |
| > 10 | > 10 | 1 to 10 | – | – | – | Cc1cn2cc(NC(=O)c3c(F)cc(N4CCNCC4)c4occc34)cc(F)c2n1 [Compound 247, 5-fluoro-N-(8-fluoro-2-methylimidazo-[1,2-a]pyridin-6-yl)-7-piperazin-1-yl-benzofuran-4-carboxamide] |
| > 10 | 1 to 10 | 1 to 10 | – | – | – | CN[C@@H]1CCN(c2ccc(C(=O)Nc3cc(F)c4nc(C)cn4c3)c3nn(C)cc23)[C@H]1C [Compound 155, N-(8-fluoro-2-methylimidazo-[1,2-a]pyridin-6-yl)-2-methyl-4-[(2S,3R)-2-methyl-3-(methylamino)-pyrrolidin-1-yl]indazole-7-carboxamide] |
| > 10 | 0.1 to 1 | < 0.1 | – | – | – | CN[C@H]1CCN(c2ccc(C(=O)Nc3cc(F)c4nc(C)cn4c3)c3nnn(C)c23)C1 [Compound 166, (S)-N-(8-fluoro-2-methylimidazo-[1,2-a]pyridin-6-yl)-1-methyl-7-(3-(methylamino)pyrrolidin-1-yl)-1H-benzo[d]-[1,2,3]triazole-4-carboxamide] |
| 1 to 10 | 1 to 10 | 0.1 to 1 | – | – | – | COCC1(N[C@H]2CCN(c3ccc(C(=O)Nc4cc(F)c5nc(C)cn5c4)c4nn(C)cc34)C2)CC1 [Compound 118, (S)—N-(8-fluoro-2-methylimidazo[1,2-a]pyridin-6-yl)-4-(3-((1-(methoxymethyl)cyclopropyl)amino)pyrrolidin-1-yl)-2-methyl-2H-indazole-7-carboxamide] |
| 1 to 10 | 0.1 to 1 | < 0.1 | – | – | – | CO[C@H]1C[C@@H](N[C@H]2CCN(c3ccc(C(=O)Nc4cc(F)c5nc(C)cn5c4)c4nn(C)cc34)C2)C1 [Compound 277, N-(8-fluoro-2-methylimidazo[1,2-a]pyridin-6-yl)-4-((S)-3-(((1s,3R)-3-methoxy-cyclobutyl)amino)pyrrolidin-1-yl)-2-methyl-2H-indazole-7-carboxamide] |
